Laboratory results reported in US20230131339A1, “EPI-X4 BASED PEPTIDES AND DERIVATIVES THEREOF” (Universitaet Ulm, priority 2020, published 2023).

What was measured:
AML cells = assay: Migration of AML cells along a CXCL12 gradient; assay type: cell-based
From the text: (§1) Experimental data support the efficiency of the claimed peptide derivatives against the diseases mentioned above. At the example of JM #21 (SEQ ID NO.: 23) it could be shown that the peptides counteract growth and migration in vitro and in vivo of Acute Myeloid Leukemia (AML) cells as well as primary patient material and Waldenström's Macroglobulinemia (WM) cells harboring different WHIM-like CXCR4 mutations. This was accompanied by intrinsic changes suppressing oncogenic MAP kinase signaling of AML and WM cells.

[1] = test system: CXCL12-induced ERK signaling; assay: ERK/AKT signaling assay in SupT1 cells: ERK phosphorylation; assay type: cell-based; conditions: 1 μM
Summary of the method: (§2)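 SupT1 cells in 1% FCS medium preincubated 15 min at 37 °C with compound, then stimulated 2 min with CXCL12 (100 ng/ml final). PFA-fixed, methanol-permeabilized cells stained for phospho-ERK1/2 (Tyr204/Tyr187) or phospho-AKT (Ser473) and read by flow cytometry; two or three independent experiments in triplicate.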

[2] = target: T1, CXCR4 12G5 epitope of AML cells (Homo sapiens, UniProt P61073); assay: Blocking of the CXCR4 12G5 epitope of AML cells; assay type: binding
T1 construct: endogenous in cells
T1 sequence (P61073 whole entry): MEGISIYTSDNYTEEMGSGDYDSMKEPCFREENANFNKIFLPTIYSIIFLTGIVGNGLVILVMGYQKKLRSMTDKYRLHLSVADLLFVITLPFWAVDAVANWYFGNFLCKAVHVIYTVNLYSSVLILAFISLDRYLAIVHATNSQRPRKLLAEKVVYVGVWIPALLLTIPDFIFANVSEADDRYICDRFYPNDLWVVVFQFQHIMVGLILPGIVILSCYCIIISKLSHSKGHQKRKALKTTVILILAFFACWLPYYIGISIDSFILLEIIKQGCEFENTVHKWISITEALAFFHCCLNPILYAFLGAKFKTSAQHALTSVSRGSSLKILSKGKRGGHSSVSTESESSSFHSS
From the text: as §1

[3] = test system: CXCL12-induced ERK phosphorylation of CXCR4 mutant WM cells; assay: CXCL12-induced ERK phosphorylation of CXCR4 mutant WM cells; assay type: cell-based
From the text: as §1

[4] = test system: CXCL12-induced AKT signaling; assay: ERK/AKT signaling assay in SupT1 cells: AKT phosphorylation; assay type: cell-based
Summary of the method: as §2

CC[C@H](C)[C@H](N)C(=O)N[C@@H](CC(C)C)C(=O)N[C@@H](CCCNC(=N)N)C(=O)N[C@@H](Cc1c[nH]c2ccccc12)C(=O)N[C@@H](CO)C(=O)N[C@@H](CCCNC(=N)N)C(=O)N[C@@H](CCCCN)C(=O)N[C@@H](CC(C)C)C(=O)N1CCC[C@H]1C(=O)N[C@@H](CS)C(=O)N[C@H](C(=O)N[C@@H](CO)C(=O)O)C(C)C [JM #21]
migration of AML cells along a CXCL12 gradient (AML cells): inhibited migration of AML cells along a CXCL12 gradient | reduction of CXCL12-induced ERK signaling [1]: 60% | blocking of CXCR4 12G5 epitope of AML cells [2]: efficiently blocked the CXCR4 12G5 epitope of AML cells in a dose dependent manner | CXCL12-induced ERK phosphorylation of CXCR4 mutant WM cells [3]: reduced CXCL12-induced ERK phosphorylation of CXCR4 mutant WM cells in a dose-dependent manner | reduction of CXCL12-induced AKT signaling ([4]; 1 μM): about 50% | reduction of CXCL12-induced AKT signaling ([4]; 10 μM): about 85% | blocking of CXCL12 induced signaling (in words) ([4]; AKT and ERK): blocked signaling more effectively than WSC02 | fold effectiveness in blocking AKT signaling relative to WSC02 ([4]; compared to WSC02): about 10 fold
